Laboratory results from patent US7951810B2, “Substituted pyrrolo[2,3-d]pyrimidines as inhibitors of E1 activating enzymes” (Millennium Pharmaceuticals, Inc., priority 2005, dated 2011).

Target: T1, recombinant human NAE enzyme (Homo sapiens, UniProt Q8TBC4)
T1 construct: His (N); made in house; host or cells: Sf9 insect cells (baculovirus, Bac-to-Bac)
T1 sequence (Q8TBC4 1-463): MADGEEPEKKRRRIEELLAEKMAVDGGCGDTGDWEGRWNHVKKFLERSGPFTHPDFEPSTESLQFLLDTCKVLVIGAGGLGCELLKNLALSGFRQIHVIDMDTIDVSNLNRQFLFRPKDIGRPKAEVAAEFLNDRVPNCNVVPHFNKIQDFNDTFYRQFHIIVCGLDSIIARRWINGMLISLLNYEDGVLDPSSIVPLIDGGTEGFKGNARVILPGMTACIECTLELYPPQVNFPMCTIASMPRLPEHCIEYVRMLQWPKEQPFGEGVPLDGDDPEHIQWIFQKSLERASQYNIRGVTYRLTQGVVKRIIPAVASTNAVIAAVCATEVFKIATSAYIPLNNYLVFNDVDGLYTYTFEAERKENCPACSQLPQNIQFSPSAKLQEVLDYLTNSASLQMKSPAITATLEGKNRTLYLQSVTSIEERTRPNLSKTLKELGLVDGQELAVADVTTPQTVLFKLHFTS
T1 sequence (Q13564 1-534 partner): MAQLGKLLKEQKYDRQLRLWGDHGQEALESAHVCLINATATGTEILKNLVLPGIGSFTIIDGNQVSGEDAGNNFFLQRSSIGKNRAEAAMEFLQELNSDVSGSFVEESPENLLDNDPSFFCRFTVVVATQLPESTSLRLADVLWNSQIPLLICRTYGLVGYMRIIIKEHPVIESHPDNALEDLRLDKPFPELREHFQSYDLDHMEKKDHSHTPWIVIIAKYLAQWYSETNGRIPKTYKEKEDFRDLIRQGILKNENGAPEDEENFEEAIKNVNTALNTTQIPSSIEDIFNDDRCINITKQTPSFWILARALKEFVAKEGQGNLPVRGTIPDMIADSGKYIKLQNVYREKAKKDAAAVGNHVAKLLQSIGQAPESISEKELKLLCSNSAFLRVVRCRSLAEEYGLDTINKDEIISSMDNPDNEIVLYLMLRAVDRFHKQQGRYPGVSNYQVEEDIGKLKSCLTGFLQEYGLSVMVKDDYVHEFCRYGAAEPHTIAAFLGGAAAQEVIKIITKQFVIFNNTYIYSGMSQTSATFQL
Assay: Nedd8-Activating Enzyme (NAE) HTRF assay
Type: biochemical
Settings: 20 μM ATP, 90 minutes at 24° C.
Experimental: Following manufacturer instructions, baculoviruses were generated with the Bac-to-Bac Expression System (Invitrogen) for the following proteins: untagged NAEα (APPBP1; NP_003896.1), N-terminally His-tagged NAEβ (UBE1C; NP_003959.3), untagged SAEα (SAE1; NP_005491.1), N-terminally His-tagged SAEβ (UBA2; NP_005490.1), N-terminally His-tagged murine UAE (UBE1X; NP_033483). NAEα/His-NAEβ and SAEα/His-SAEβ complexes were generated by co-infection of Sf9 cells, which were harvested after 48 hours. His-mUAE was generated by single infection of Sf9 cells and harvested after 72 hours. Expressed proteins were purified by affinity chromatography (Ni-NTA agarose, Qiagen) using standard buffers.
Ubc12 (UBE2M; NP_003960.1), Ubc9 (UBE2I; NP_003336.1), Ubc2 (UBE2A; NP_003327.2) were subcloned into pGEX (Pharmacia) and expressed as N-terminally GST tagged fusion proteins in E. coli. Expressed proteins were purified by conventional affinity chromatography using standard buffers.
Nedd8 (NP_006147), Sumo-1 (NP_003343) and Ubiquitin (with optimized codons) were subcloned into pFLAG-2 (Sigma) and expressed as N-terminally Flag tagged fusion proteins in E. coli. Expressed proteins were purified by conventional chromatography using standard buffers.
Nedd8-Activating Enzyme (NAE) HTRF Assay.
The NAE enzymatic reaction totaled 50 μL and contained 50 mM HEPES (pH 7.5), 0.05% BSA, 5 mM MgCl2, 20 μM ATP, 250 μM GSH, 0.01 μM Ubc12-GST, 0.075 μM Nedd8-Flag and 0.28 nM recombinant human NAE enzyme. The enzymatic reaction mixture, with and without compound inhibitor, was incubated at 24° C. for 90 minutes in a 384-well plate before termination with 25 μL of Stop/Detection buffer (0.1M HEPES pH 7.5, 0.05% Tween20, 20 mM EDTA, 410 mM KF, 0.53 nM Europium-Cryptate labeled monoclonal anti-FLAG M2 antibody (CisBio International) and 8.125 μg/mL PHYCOLINK goat anti-GST allophycocyanin (XL-APC) antibody (Prozyme)). After incubation for 3 hours at 24° C., quantification of the FRET was performed on the Analyst™ HT 96.384 (Molecular Devices).

[1] = threshold less than or equal to 100 nM
[2] = threshold less than or equal to 1 μM

Row | IC50 [1] [nM] | IC50 [2] [nM] | Compound
1 | ≤ 100 | ≤ 1000 | NS(=O)(=O)OC[C@H]1O[C@@H](n2cnc3c(N[C@H]4CCc5ccccc54)ncnc32)C[C@@H]1O [Compound I-1, ((2R,3S,5R)-5-{6-[(1S)-2,3-dihydro-1H-inden-1-ylamino]-9H-purin-9-yl}-3-hydroxytetrahydrofuran-2-yl)methyl sulfamate]
2 |  | ≤ 1000 | Cn1cc(CNc2ncnc3c2ncn3[C@@H]2O[C@H](CNS(N)(=O)=O)[C@@H](O)[C@H]2O)cn1 [Compound I-38, N-{[(2R,3S,4R,5R)-3,4-dihydroxy-5-(6-{[(1-methyl-1H-pyrazol-4-yl)methyl]-amino}-9H-purin-9-yl)tetrahydrofuran-2-yl]methyl}sulfamide]
3 | ≤ 100 | ≤ 1000 | C[C@@H](OS(N)(=O)=O)[C@H]1O[C@@H](n2cnc3c(N[C@H]4CCc5ccccc54)ncnc32)[C@H](O)[C@@H]1O [Compound I-58, (R)-1-((2S,3S,4R,5R)-5-(6-((S)-2,3-dihydro-1H-inden-1-ylamino)-9H-purin-9-yl)-3,4-dihydroxy-tetrahydrofuran-2-yl)ethyl sulfamate]
4 | ≤ 100 | ≤ 1000 | NS(=O)(=O)NC[C@H]1O[C@@H](n2cnc3c(NCc4ccc(F)cc4)ncnc32)[C@H](O)[C@@H]1O [Compound I-126, N-[((2R,3S,4R,5R)-5-{6-[(4-fluorobenzyl)amino]-9H-purin-9-yl}-3,4-dihydroxytetrahydrofuran-2-yl)methyl]sulfamide]
5 | ≤ 100 | ≤ 1000 | COCCc1ncnc2c1ncn2[C@@H]1O[C@H](COS(N)(=O)=O)[C@@H](O)[C@H]1O [Compound I-137, {(2R,3S,4R,5R)-3,4-dihydroxy-5-[6-(2-methoxyethyl)-9H-purin-9-yl]tetrahydrofuran-2-yl}methyl sulfamate]
